Molecules are shown by their SMILES. Bounds are passed on as bounds.

For orientation: IC50 means the concentration at which inhibition is half-maximal. A high value points to weaker potency. In general, half-life refers to the time in which the quantity being followed falls by half. Low values mean fast loss, high ones slow loss.

For series [1], the system named is PC-3. Briefly: cells. The conditions noted are these: Homo sapiens.
Description: Antiproliferative activity against human PC-3 cells
Series [2] concerns A549. The series is described as follows: cells. The conditions noted are these: Homo sapiens.
Description: Antiproliferative activity against human A549 cells
Series [3] deals with HeLa. The series is described as follows: cells. The conditions noted are these: Homo sapiens.
Description: Antiproliferative activity against human HeLa cells
In series [4] the test system is CAKI-1. Briefly: cells. The conditions noted are these: Homo sapiens.
Description: Antiproliferative activity against human CAKI-1 cells
Series [5] relates to MIA PaCa-2. The series is described as follows: cells. The conditions noted are these: Homo sapiens.
Description: Antiproliferative activity against human MIA PaCa-2 cells
Series [6] addresses Serine/threonine-protein kinase mTOR (Homo sapiens, UniProt P42345).
Description: Inhibition of mTOR (unknown origin)
The nature of series [7]: clinical. Conditions: human.
In series [8] the test system is MCF7. The series is described as follows: Antiproliferative activity against human MCF7 cells. In kind it is functional, cell-based.
Series [9] is filed under the species Homo sapiens. The series is described as follows: Selectivity index, ratio of IC50 for PI3Kalpha (unknown origin) to IC50 for mTOR (unknown origin). In kind it is functional.

As for `CCCc1nn(C)c2c(=O)[nH]c(-c3cc(OC)cc(OC)c3)nc12`, the concentration for half-maximal inhibition (IC50) in [1] came to 38 µM; in [2] it was 14 µM; in series [3], 19 µM; in series [4], 17 µM; in [5], 24 µM. The compound `CO[C@H]1C[C@@H]2CC[C@@H](C)[C@@](O)(O2)C(=O)C(=O)N2CCCC[C@H]2C(=O)O[C@H]([C@H](C)C[C@@H]2CC[C@@H](OCCO)[C@H](OC)C2)CC(=O)[C@H](C)/C=C(\C)[C@@H](O)[C@@H](OC)C(=O)[C@H](C)C[C@H](C)/C=C/C=C/C=C/1C` [EVEROLIMUS] had an IC50 in series [6] of 0.005 µM. For `CO[C@H]1C[C@@H]2CC[C@@H](C)[C@@](O)(O2)C(=O)C(=O)N2CCCC[C@H]2C(=O)O[C@H]([C@H](C)C[C@@H]2CC[C@@H](O)[C@H](OC)C2)CC(=O)[C@H](C)/C=C(\C)[C@@H](O)[C@@H](OC)C(=O)[C@H](C)C[C@H](C)/C=C/C=C/C=C/1C` [SIROLIMUS], in series [7], the half-life was 40 h. Take `CCOC(=O)N1Cc2nc(-c3ccc(NC(=O)NC4CC4)cc3)nc(N3CCOC[C@@H]3C)c2C1`: the half-maximal inhibitory concentration (IC50) in [6] is under 1 µM.

In turn, `COc1ccc(C2Cc3c(C)nc(N)nc3N([C@H]3CC[C@H](OCCO)CC3)C2=O)cn1` (some centres undefined) registered an IC50 in [6] of 0.016 µM. In the case of `CCc1ccc(C(=O)c2cnc3cc4c(cc3c2N2CCC(C(N)=O)CC2)OCCO4)cc1`, the IC50 was 2 µM in series [8] and 8 µM in [2].

As to `C[C@H]1COCCN1c1nc(-c2ccc(NC(=O)NCC(F)F)cc2)cc(-c2cc(F)ccc2S(C)(=O)=O)n1`, the half-inhibitory concentration (IC50) in series [6] is under 1 µM. `O=C(c1ccc(C(=O)C(F)(F)F)cc1)N1CCOc2ccc(-c3cnc4ccccc4c3)cc2C1` gave a concentration for half-maximal inhibition (IC50) in series [6] of 0.095 µM. The Ratio IC50 in series [9] was found to be 4.

Values taken from ChEMBL document CHEMBL5244238, “Targeting mTOR for fighting diseases: A revisited review of mTOR inhibitors” (Eur J Med Chem, 2020).
